Assay in all cases: Herbicidal effect by foliage and soil treatment
Format in all cases: in vivo
Details in all cases: 10 g ai/10a, evaluated after 14 days

Assay [1] has as its system black nightshade (Solanum nigrum). The procedure, abridged:
(§1)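 Read-out: rated growth inhibition relative to non-treated plants 14 days after spraying. Young plants (cotyledon to two leaves) received a foliage-and-soil spray of compound in aqueous Tween 20 at a controlled rate, greenhouse at 19–25 °C.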

Assay [2] has as its system cleavers (Galium aparine). The method, boiled down:
as §1

Assay [3] relates to common blackjack (Bidens pilosa). The method, boiled down:
as §1

The test system of assay [4] is common chickweed (Stellaria media). The procedure, abridged:
as §1

In assay [5] the test system is field bindweed (Convolvulus arvensis). The procedure, abridged: as §1
Assay [6] deals with ivyleafspeedwell (Veronica hederaefolia). The procedure, abridged:
as §1

The subject of assay [7] is kediock (Sinapis arvensis). The procedure, abridged:
as §1

In assay [8] the test system is redroot pigweed (Amaranthus retroflexus). The method, boiled down: as §1
For assay [9], the system named is sicklepod (Cassia obtusifolia). The method, boiled down: as §1
Assay [10] concerns velvetleaf (Abutilon theophrasti). The procedure, abridged: as §1
Assay [11] has as its system wild chamomile (Matricaria chamomilla). The method, boiled down:
as §1

As to `COc1cc(Oc2cccc(C(F)(F)F)c2)nc(C(=O)NOCC2CC2)c1` [Compound I-107], the “herbicidal activity rating, SN (Solanum nigrum)” value (“herbicidal activity rating, SN” below) in assay [1] was 5 (percentage of weeds killed was not less than 80%). For the same molecule, the “herbicidal activity rating, GA (Galium aparine)” value (“herbicidal activity rating, GA” below) in [2] is reported as 5 (percentage of weeds killed was not less than 80%). Moreover, the “herbicidal activity rating, BP (Bidens pilosa)” value (“herbicidal activity rating, BP” below) in [3] was 3 (percentage of weeds killed was not less than 40% and less than 60%). In addition, the “herbicidal activity rating, SM (Stellaria media)” value (“herbicidal activity rating, SM” below) in [4] is 5 (percentage of weeds killed was not less than 80%). For the same molecule, the “herbicidal activity rating, CA (Convolvulus arvensis)” value (“herbicidal activity rating, CA” below) in assay [5] was 4 (percentage of weeds killed was not less than 60% and less than 80%). In assay [6], the “herbicidal activity rating, VH (Veronica hederaefolia)” value (“herbicidal activity rating, VH” below) is on record as 5 (percentage of weeds killed was not less than 80%). In addition, the “herbicidal activity rating, SA (Sinapis arvensis)” value (“herbicidal activity rating, SA” below) in [7] is given as 5 (percentage of weeds killed was not less than 80%). Moreover, the “herbicidal activity rating, AR (Amaranthus retroflexus)” value (“herbicidal activity rating, AR” below) in assay [8] is on record as 5 (percentage of weeds killed was not less than 80%). Further, the “herbicidal activity rating, CO (Cassia obtusifolia)” value (“herbicidal activity rating, CO” below) in assay [9] is 5 (percentage of weeds killed was not less than 80%). Further, the “herbicidal activity rating, AT (Abutilon theophrasti)” value in assay [10] is 4 (percentage of weeds killed was not less than 60% and less than 80%). For the same molecule, the “herbicidal activity rating, MC (Matricaria chamomilla)” value (“herbicidal activity rating, MC” below) in [11] was 3 (percentage of weeds killed was not less than 40% and less than 60%).
As for `COc1cc(Oc2cccc(C(F)(F)F)c2)nc(C(=O)NN(C)C)c1` [Compound I-109], in [1], the “herbicidal activity rating, SN” value was 5 (percentage of weeds killed was not less than 80%). Also, the “herbicidal activity rating, GA” value in assay [2] was 5 (percentage of weeds killed was not less than 80%). The “herbicidal activity rating, BP” value in [3] is given as 5 (percentage of weeds killed was not less than 80%). In addition, the “herbicidal activity rating, SM” value in assay [4] was 4 (percentage of weeds killed was not less than 60% and less than 80%). In addition, in [5], the “herbicidal activity rating, CA” value was 4 (percentage of weeds killed was not less than 60% and less than 80%). For the same molecule, the “herbicidal activity rating, VH” value in assay [6] is listed as 5 (percentage of weeds killed was not less than 80%). In addition, in [7], the “herbicidal activity rating, SA” value was 5 (percentage of weeds killed was not less than 80%). Further, the “herbicidal activity rating, AR” value in [8] was 5 (percentage of weeds killed was not less than 80%). Besides, the “herbicidal activity rating, CO” value in assay [9] is 5 (percentage of weeds killed was not less than 80%). Further, the “herbicidal activity rating, AT (Abutilon theophrasti)” value in [10] is 5 (percentage of weeds killed was not less than 80%). In addition, in [11], the “herbicidal activity rating, MC” value was 4 (percentage of weeds killed was not less than 60% and less than 80%).
In the case of `COc1cc(Oc2cccc(C(F)(F)F)c2)nc(C(N)=O)c1` [Compound I-123, 4-methoxy-6-{3-(trifluoromethyl)phenoxy}-2-pyridine carboxamide], the “herbicidal activity rating, SN” value in [1] is recorded as 5 (percentage of weeds killed was not less than 80%). In addition, the “herbicidal activity rating, GA” value in [2] is 5 (percentage of weeds killed was not less than 80%). Also, in assay [3], the “herbicidal activity rating, BP” value was 2 (percentage of weeds killed was not less than 20% and less than 40%). Besides, the “herbicidal activity rating, SM” value in assay [4] is 5 (percentage of weeds killed was not less than 80%). The “herbicidal activity rating, CA” value in [5] was 4 (percentage of weeds killed was not less than 60% and less than 80%). The “herbicidal activity rating, VH” value in assay [6] is reported as 5 (percentage of weeds killed was not less than 80%). Also, the “herbicidal activity rating, SA” value in [7] is listed as 5 (percentage of weeds killed was not less than 80%). Besides, in [8], the “herbicidal activity rating, AR” value is on record as 5 (percentage of weeds killed was not less than 80%). The “herbicidal activity rating, CO” value in [9] was 2 (percentage of weeds killed was not less than 20% and less than 40%). Also, the “herbicidal activity rating, AT (Abutilon theophrasti)” value in assay [10] is 3 (percentage of weeds killed was not less than 40% and less than 60%). Besides, the “herbicidal activity rating, MC” value in assay [11] is reported as 1 (percentage of weeds killed was less than 20%).
Consider `COc1cc(Oc2cccc(C(F)(F)F)c2)nc(C(=O)NNC(C)(C)C)c1` [Compound I-126], for which the “herbicidal activity rating, SN” value in assay [1] was 5 (percentage of weeds killed was not less than 80%). The “herbicidal activity rating, GA” value in [2] was 5 (percentage of weeds killed was not less than 80%). For the same molecule, the “herbicidal activity rating, BP” value in [3] is given as 5 (percentage of weeds killed was not less than 80%). In addition, the “herbicidal activity rating, SM” value in assay [4] is on record as 5 (percentage of weeds killed was not less than 80%). For the same molecule, in assay [5], the “herbicidal activity rating, CA” value was 4 (percentage of weeds killed was not less than 60% and less than 80%). Also, in assay [6], the “herbicidal activity rating, VH” value was 5 (percentage of weeds killed was not less than 80%). For the same molecule, in assay [7], the “herbicidal activity rating, SA” value is on record as 5 (percentage of weeds killed was not less than 80%). In [8], the “herbicidal activity rating, AR” value is 5 (percentage of weeds killed was not less than 80%). Moreover, in assay [9], the “herbicidal activity rating, CO” value was 5 (percentage of weeds killed was not less than 80%). Moreover, the “herbicidal activity rating, AT (Abutilon theophrasti)” value in [10] is reported as 5 (percentage of weeds killed was not less than 80%). Besides, the “herbicidal activity rating, MC” value in assay [11] was 4 (percentage of weeds killed was not less than 60% and less than 80%).
On to `COc1cc(Oc2cccc(C(F)(F)F)c2)nc(C(=O)NCS(C)(=O)=O)c1` [Compound I-127], for which the “herbicidal activity rating, SN” value in [1] is reported as 5 (percentage of weeds killed was not less than 80%). Moreover, the “herbicidal activity rating, GA” value in assay [2] is 5 (percentage of weeds killed was not less than 80%). Further, in assay [3], the “herbicidal activity rating, BP” value is 5 (percentage of weeds killed was not less than 80%). Also, the “herbicidal activity rating, SM” value in assay [4] is given as 5 (percentage of weeds killed was not less than 80%). Besides, the “herbicidal activity rating, CA” value in [5] is recorded as 5 (percentage of weeds killed was not less than 80%). Besides, the “herbicidal activity rating, VH” value in [6] is recorded as 5 (percentage of weeds killed was not less than 80%). The “herbicidal activity rating, SA” value in assay [7] was 5 (percentage of weeds killed was not less than 80%). Further, the “herbicidal activity rating, AR” value in assay [8] is recorded as 5 (percentage of weeds killed was not less than 80%). In assay [9], the “herbicidal activity rating, CO” value is given as 5 (percentage of weeds killed was not less than 80%). In addition, the “herbicidal activity rating, AT (Abutilon theophrasti)” value in assay [10] is reported as 5 (percentage of weeds killed was not less than 80%). For the same molecule, the “herbicidal activity rating, MC” value in assay [11] is 4 (percentage of weeds killed was not less than 60% and less than 80%).

Source of the values: patent US6339045B1, “N-(unsubstituted or substituted)-4-substituted-6-(unsubstituted or substituted)phenoxy-2-pyridinecarboxamides or thiocarboxamides, processes for producing the same, and herbicides” (Kureha Kagaku Kogyo Kabushiki Kaisha, priority 1995, dated 2002).
